According to patent publication US20230096781A1, “METHODS OF CONTROLLING BODYWEIGHT BY MODULATING PHOSPHATIDYLINOSITOL 5-PHOSPHATE 4-KINASE BETA ACTIVITY” (University of Cincinnati, priority 2020, published 2023):
Where a chain is given by its changes, count along the chain named. Several values for one entry are separate records, joined by “and”; a condition that tells them apart may be missing. Equal values may be shown once.

Key:
[1] = biological target: T1, PI5P4KβF205L (Homo sapiens, UniProt P78356, F205L); assay: PNT hydrolysis activity of mutant PI5P4Kβ; type: biochemical
T1 sequence (P78356 1-416 F205L): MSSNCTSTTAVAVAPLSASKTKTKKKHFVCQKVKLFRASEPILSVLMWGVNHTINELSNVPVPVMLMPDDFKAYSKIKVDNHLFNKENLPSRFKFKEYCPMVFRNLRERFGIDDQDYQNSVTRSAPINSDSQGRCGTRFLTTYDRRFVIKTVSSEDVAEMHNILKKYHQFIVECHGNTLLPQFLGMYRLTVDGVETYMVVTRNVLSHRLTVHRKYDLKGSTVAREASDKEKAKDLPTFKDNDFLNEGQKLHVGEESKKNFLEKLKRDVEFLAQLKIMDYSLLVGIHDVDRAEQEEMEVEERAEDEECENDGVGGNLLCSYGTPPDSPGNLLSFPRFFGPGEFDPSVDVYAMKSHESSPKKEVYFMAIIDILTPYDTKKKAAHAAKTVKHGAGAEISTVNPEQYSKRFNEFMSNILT
Method: (§1) (A)-(C) show PNT hydrolysis activity of mutant PI5P4Kβ as compared to the WT. The ratios of dephosphorylated/triphosphorylated nucleotides after reaction are shown. The N203A activity is almost negligible.
(§2) In addition, the hydrolysis activity of the mutants on four active triphosphorylated nucleotides were analyzed, XTP, ITP, 6-thio-GTP, and 2a-ATP. […] In the crystal structure of the PI5P4KβN203D-ITP complex, ITP binds in a similar manner as the WT.

[2] = biological target: T2, PI5P4KβN203D (Homo sapiens, UniProt P78356, N203D); assay: PNT hydrolysis activity of mutant PI5P4Kβ; type: biochemical
T2 sequence (P78356 1-416 N203D): T1 sequence (P78356 1-416 F205L) with N203D, L205F
Method: as §1, §2

[3] = biological target: T3, PI5P4Kβ (Homo sapiens, UniProt P78356); assay: NMR-based PNT hydrolysis assay; type: biochemical; settings: WT PI5P4Kβ
T3 sequence (P78356 1-416): T1 sequence (P78356 1-416 F205L) with L205F
Method: (A) The PNT hydrolysis activity of PI5P4Kβ. indicative of the kinase activity of PI5P4Kβ. was assessed by the signal intensity ratios of diphosphorylated/triphosphorylated nucleotides after the reaction. The average values from three experiments are shown with error bars (SD). Highly hydrolyzed nucleotides (>0.1 of the ratios) were shown for GTP, ITP, XTP, 6-thio-GTP, and 2a-ATP. (B), (C), and (D) show interactions of the PI5P4Kβ-ITP, PI5P4Kβ-XTP, and PI5P4Kβ-2a-ATP complexes, respectively. Dotted lines represent hydrogen bonds between the PNTs and PI5P4Kβ.
(§3) Next, the mechanism of the GTP preference of PI5P4Kβ was investigated using a series of ATP and GTP analogs. Based on analysis of the GTP-PI5P4Kβ interaction (FIG. 10(B)), 10 PNTs with different configurations at the 2nd and 6th positions of the purine base (NH2(2) and O(6) in guanine base, respectively) were chosen (FIG. 10(A)). The hydrolysis activities of PI5P4Kβ for these PNTs were quantified by an NMR-based assay (data not shown). […] On the other hand, O(6) seems to be required for the activity. […] This view is also supported by the larger energetic contribution of the O(6) moiety compared to the NH2(2) moiety in the FMO interaction analysis between GTP and PI5P4Kβ (FIG. 15).

[4] = biological target: T4, PI5P4KβT201M (Homo sapiens, UniProt P78356, T201M); assay: PNT hydrolysis activity of mutant PI5P4Kβ; type: biochemical
T4 sequence (P78356 1-416 T201M): T1 sequence (P78356 1-416 F205L) with T201M, L205F

[5] = system: isogenic Pip4K2b^−/− cells; assay: Lysotracker staining of serum-starved MEFs (lysosomal acidification); type: cell-based, mouse; settings: 10 μM MPA or 20 μM Link17
[6] = system: WT-PI5P4Kβ-expressing Pip4K2b^−/− cells; assay: as above; type: cell-based, mouse
[7] = biological target: T3, PI5P4Kβ; assay: Competition assay of 32P-GTP-dependent PI(5)P phosphorylation by cold PNTs; type: biochemical; settings: 250 μM 32P-GTP, 3.2-400 μM cold PNT
Method: (A) The kinase reaction was carried out in a total of 50 μl of reaction buffer (50 mM HEPES (pH 7.4), 0.2 mM EGTA, and 10 mM MgCl2) containing 20 μM of PI(5)P (d-myo-phosphatidylinositol 5-phosphate diC16) that was suspended by sonication. 250 μM of γ-^32P radiolabeled GTP was incubated with 1 μg of recombinant PI5P4Kβ for 10 min at room temperature. 20 μM of PI(5)P was used with 3 μM 1,2-dipalmitoyl-phosphatidylserine as the basal lipid. Phosphoinositides were extracted by a methanol/chloroform (1/1, v/v) mix and subjected to a thin-layer chromatography (TLC) assay using heat-activated 2% […] silica gel 60 plates. The solvent was 1-propanol/2 M acetic acid (65/35, v/v). In competition assay, 250 μM of ^32P-labeled GTP was mixed with 3.2-400 μM triphosphorylated nucleotides, and the PI(5)P phosphorylation by GTP was monitored by quantifying the amount of radiolabeled PI(4,5)P2. (B) Relative kinase activities in the presence of each PNT against those without them (i.e., only ^32P-GTP condition) are shown.
as §3

[8] = biological target: T4, PI5P4KβT201M; settings: T201M mutant; partly reported in Sumita et al., 2016; cited from earlier work
[9] = biological target: T3, PI5P4Kβ; settings: KM for GTP; cited from earlier work
[10] = biological target: T1, PI5P4KβF205L; settings: F205L mutant; partly reported in Sumita et al., 2016; cited from earlier work
[11] = system: PI5P4Kβ with mutation of Asn-203; assay: Nucleotide binding of Asn-203 mutant PI5P4Kβ
Method: The functional role of Asn-203 was analyzed, because this is the only invariant residue in the base-recognition loop of PI4P5K and PI5P4K.

[12] = system: Pip4k2b^−/− cells; assay: Nigericin-induced vacuolization; type: cell-based, mouse; settings: within 4h after nigericin treatment
Method: (D) is a graph showing cytotoxic death by nigericin was suppressed in Pip4K2b^−/− cells and F205L-PI5P4Kβ-expressing Pip4K2b−/− cells.
(§4) Next, treatment with microbial toxin nigericin, a selective K^+/H^+ exchanger that is activated in the lysosome and induces lysosome rupture and following cell death, was assessed. […] The autophagic flux in MEF, 293T, and HCT116 cells was decreased by Link17 treated cells (FIG. 7(A),(B)). In the isogenic MEFs, autophagy was decreased in Pip4k2b^−/− and F205L cells, compared to WT cells (FIG. 7(C)).

[13] = system: WT PI5P4Kβ-reconstituted Pip4k2b^−/− cells; assay: Nigericin-induced vacuolization; type: cell-based, mouse; settings: within 4h after nigericin treatment
Method: as §4

[14] = system: WT PI5P4Kβ-reconstituted Pip4k2b^−/− cells; assay: Cell viability after nigericin treatment; type: cell-based, mouse
Method: as §4

Row | SMILES | hydrolysis activity compared to WT [1] | hydrolysis activity compared to WT [2] | hydrolysis activity of PI5P4Kβ (in words) [3] | inhibition of GTP-dependent PI(5)P phosphorylation activity [7] | also measured
1 | Nc1nc(N)c2ncn([C@@H]3O[C@H](COP(=O)(O)OP(=O)(O)OP(=O)(O)O)[C@@H](O)[C@H]3O)c2n1 [2a-ATP] | not affected | significantly reduced | substantial activity |  | hydrolysis activity compared to WT [4]: more active
2 | COc1c(C)c2c(c(O)c1C/C=C(\C)CCC(=O)O)C(=O)OC2 [MPA, mycophenolic acid] |  |  |  |  | lysosomal acidification (lysotracker staining) [5]: not; lysosomal acidification (lysotracker staining) ([6]; 10 μM MPA or 20 μM Link17): suppressed lysosomal acidification; lysosomal acidification (lysotracker staining) ([6]; 10 μM MPA or 20 μM Link17, listed as mycophenolic acid): had a deacidification effect
3 | O=P(O)(O)OP(=O)(O)OP(=O)(O)OC[C@H]1O[C@@H](n2cnc3c(O)ncnc32)[C@H](O)[C@@H]1O [ITP, inosine triphosphate] | less active | hyperactive | substantial activity | strongly inhibited | hydrolysis activity compared to GTP [3]: 1.3 times
4 | Nc1nc(Cl)c2ncn(C3OC(COP(=O)(O)OP(=O)(O)OP(=O)(O)O)C(O)C3O)c2n1 (stereo not shown) [2a-6C1-PTP] |  |  | very low hydrolysis activity |  | 
5 | COc1nc(N)nc2c1ncn2[C@@H]1O[C@H](COP(=O)(O)OP(=O)(O)OP(=O)(O)O)[C@@H](O)[C@H]1O [O6-me-GTP] |  |  | very low hydrolysis activity |  | 
6 | Nc1nc(=S)c2ncn([C@@H]3O[C@H](COP(=O)(O)OP(=O)(O)OP(=O)(O)O)[C@H](O)C3O)c2[nH]1 (stereo partly shown) [6-thio-GTP] | less active |  | substantial activity | strongly inhibited | 
7 | O=c1[nH]c(=O)c2ncn([C@@H]3O[C@H](COP(=O)(O)OP(=O)(O)OP(=O)(O)O)[C@@H](O)[C@H]3O)c2[nH]1 [XTP, xanthosine triphosphate] | diminished susceptibility | significantly reduced | substantial activity | strongly inhibited | hydrolysis activity compared to GTP [3]: 1.9 times
8 | Nc1nc2c(ncn2[C@@H]2O[C@H](COP(=O)(O)OP(=O)(O)OP(=O)(O)O)[C@@H](O)[C@H]2O)c(=O)[nH]1 [GTP, guanosine triphosphate] | less active | significantly reduced |  |  | nucleotide-dependent kinase activity [8]: decreased GTP-dependent kinase activity; Km [9]: ~100 µM and ~88 µM; nucleotide-dependent kinase activity [10]: reduction of the GTP-dependent activity; binding of nucleotide [11]: markedly reduced the binding
9 | CO[C@@H]1C[C@@H](C[C@H]2CC[C@H](C)[C@H]([C@@H](C)C(=O)O)O2)O[C@]2(O[C@](C)([C@H]3CC[C@@](C)([C@@H]4O[C@@H]([C@H]5O[C@@](O)(CO)[C@H](C)C[C@@H]5C)C[C@@H]4C)O3)C[C@H]2C)[C@@H]1C [nigericin] |  |  |  |  | hypervacuolization after nigericin treatment [12]: not; hypervacuolization after nigericin treatment [13]: hypervacuolization was observed; cell viability [14]: decreased cell viability
10 | Nc1ncnc2c1ncn2[C@@H]1O[C@H](COP(=O)(O)OP(=O)(O)OP(=O)(O)O)[C@@H](O)[C@H]1O [ATP] | not affected | significantly reduced |  |  | nucleotide-dependent kinase activity [8]: higher ATP-dependent activity; nucleotide-dependent kinase activity [10]: comparable to that of WT PI5P4Kβ; binding of nucleotide [11]: markedly reduced the binding; hydrolysis activity compared to WT [4]: more active
